Active and inactive are the calls of the source. No cut-off for these calls is given here.

For experiment [1], the system named is HL-60. The experiment in a line: Downregulation of HDAC3 protein expression in human HL-60 cells at 0.5 to 1 times IC50 by Western blot analysis. It counts as functional, cell-based. (Immunoblotting shows a protein as a band on a membrane.)
The target in experiment [2] is T1, Histone deacetylase 1 (Homo sapiens, UniProt Q13547). Description: Inhibition of HDAC1 (unknown origin) using p53 residues 379 to 382 [RHKK(Ac)] as fluorogenic substrate assessed as residual activity at 1 x 10^-5M (reference value: 98.06%). The conditions noted are these: dose 1.0 10^-5M.
In experiment [3] the test system is HL-60. The experiment in a line: Induction of cell cycle arrest in human HL-60 cells assessed as accumulation of cells at sub-G1 phase at 0.5 to 1 times IC50 by PI staining based flow cytometry analysis. The class given is functional. (Flow cytometry measures light scatter and fluorescence of single cells or particles in a stream.)
In experiment [4] the target is T1, Histone deacetylase 1. The experiment in a line: Inhibition of HDAC1 (unknown origin) using p53 residues 379 to 382 [RHKK(Ac)] as fluorogenic substrate assessed as residual activity at 4.57 x 10^-9M (reference value: 98.06%). To be noted: dose 4.57 10^-9M.
The target in experiment [5] is Histone deacetylase 9 (Homo sapiens) (UniProt Q9UKV0). Description: Inhibition of HDAC9 (unknown origin) assessed as residual activity at 4.57 x 10^-9M (reference value: 97.55%). The conditions noted are these: dose 4.57 10^-9M.
Experiment [6] deals with T2, Histone deacetylase 8 (Homo sapiens) (UniProt Q9BY41).
T2 sequence (whole entry): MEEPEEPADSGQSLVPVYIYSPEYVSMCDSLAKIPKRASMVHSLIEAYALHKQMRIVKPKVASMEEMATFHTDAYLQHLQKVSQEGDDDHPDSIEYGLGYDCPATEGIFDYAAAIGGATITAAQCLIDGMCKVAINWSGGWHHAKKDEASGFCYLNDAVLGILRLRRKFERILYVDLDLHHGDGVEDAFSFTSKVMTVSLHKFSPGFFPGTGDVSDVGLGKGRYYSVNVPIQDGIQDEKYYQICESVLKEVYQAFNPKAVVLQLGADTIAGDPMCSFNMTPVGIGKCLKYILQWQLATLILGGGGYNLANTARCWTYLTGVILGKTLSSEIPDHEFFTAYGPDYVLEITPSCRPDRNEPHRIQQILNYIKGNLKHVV
Description: Inhibition of HDAC8 (unknown origin) assessed as residual activity at 1.37 x 10^-8M (reference value: 100%). The conditions noted are these: dose 1.37 10^-8M.

The test system of experiment [7] is HL-60. Description: cells. To be noted: Homo sapiens.
Description: Antiproliferative activity against human HL-60 cells assessed as inhibition of cell growth by MTT assay
Experiment [8] deals with Histone deacetylase 5 (Homo sapiens) (UniProt Q9UQL6). The experiment in a line: Inhibition of HDAC5 (unknown origin) assessed as residual activity at 1.23 x 10^-7M (reference value: 100%). To be noted: dose 1.23 10^-7M.
In experiment [9] the test system is HL-60. The experiment in a line: Downregulation of HDAC3 protein expression in human HL-60 cells by Western blot analysis. To be noted: dose 0.2-5 µM. The class given is functional, cell-based.
The target in experiment [10] is Histone deacetylase 9 (Homo sapiens) (UniProt Q9UKV0). Description: Inhibition of HDAC9 (unknown origin) assessed as residual activity at 1.23 x 10^-7M (reference value: 97.55%). To be noted: dose 1.23 10^-7M.
In experiment [11] the test system is HL-60. Description: Downregulation of HDAC1 protein expression in human HL-60 cells by Western blot analysis. The conditions noted are these: dose 0.2-5 µM. The class given is functional, cell-based.
Experiment [12] has as its target T1, Histone deacetylase 1. Description: Inhibition of HDAC1 (unknown origin) using p53 residues 379 to 382 [RHKK(Ac)] as fluorogenic substrate assessed as residual activity at 1.52 x 10^-9M (reference value: 98.06%). To be noted: dose 1.52 10^-9M.
The target of experiment [13] is T3, Histone deacetylase 2 (Homo sapiens, UniProt Q92769). The experiment in a line: Inhibition of HDAC2 (unknown origin) assessed as residual activity at 1 x 10^-5M (reference value: 99.81%). To be noted: dose 1.0 10^-5M.
Experiment [14] concerns the target T3, Histone deacetylase 2. Description: Inhibition of HDAC2 (unknown origin) assessed as residual activity at 4.57 x 10^-9M (reference value: 99.81%). The conditions noted are these: dose 4.57 10^-9M.
Experiment [15] addresses T4, Protein deacetylase HDAC6 (Homo sapiens) (UniProt Q9UBN7).
T4 sequence (whole entry): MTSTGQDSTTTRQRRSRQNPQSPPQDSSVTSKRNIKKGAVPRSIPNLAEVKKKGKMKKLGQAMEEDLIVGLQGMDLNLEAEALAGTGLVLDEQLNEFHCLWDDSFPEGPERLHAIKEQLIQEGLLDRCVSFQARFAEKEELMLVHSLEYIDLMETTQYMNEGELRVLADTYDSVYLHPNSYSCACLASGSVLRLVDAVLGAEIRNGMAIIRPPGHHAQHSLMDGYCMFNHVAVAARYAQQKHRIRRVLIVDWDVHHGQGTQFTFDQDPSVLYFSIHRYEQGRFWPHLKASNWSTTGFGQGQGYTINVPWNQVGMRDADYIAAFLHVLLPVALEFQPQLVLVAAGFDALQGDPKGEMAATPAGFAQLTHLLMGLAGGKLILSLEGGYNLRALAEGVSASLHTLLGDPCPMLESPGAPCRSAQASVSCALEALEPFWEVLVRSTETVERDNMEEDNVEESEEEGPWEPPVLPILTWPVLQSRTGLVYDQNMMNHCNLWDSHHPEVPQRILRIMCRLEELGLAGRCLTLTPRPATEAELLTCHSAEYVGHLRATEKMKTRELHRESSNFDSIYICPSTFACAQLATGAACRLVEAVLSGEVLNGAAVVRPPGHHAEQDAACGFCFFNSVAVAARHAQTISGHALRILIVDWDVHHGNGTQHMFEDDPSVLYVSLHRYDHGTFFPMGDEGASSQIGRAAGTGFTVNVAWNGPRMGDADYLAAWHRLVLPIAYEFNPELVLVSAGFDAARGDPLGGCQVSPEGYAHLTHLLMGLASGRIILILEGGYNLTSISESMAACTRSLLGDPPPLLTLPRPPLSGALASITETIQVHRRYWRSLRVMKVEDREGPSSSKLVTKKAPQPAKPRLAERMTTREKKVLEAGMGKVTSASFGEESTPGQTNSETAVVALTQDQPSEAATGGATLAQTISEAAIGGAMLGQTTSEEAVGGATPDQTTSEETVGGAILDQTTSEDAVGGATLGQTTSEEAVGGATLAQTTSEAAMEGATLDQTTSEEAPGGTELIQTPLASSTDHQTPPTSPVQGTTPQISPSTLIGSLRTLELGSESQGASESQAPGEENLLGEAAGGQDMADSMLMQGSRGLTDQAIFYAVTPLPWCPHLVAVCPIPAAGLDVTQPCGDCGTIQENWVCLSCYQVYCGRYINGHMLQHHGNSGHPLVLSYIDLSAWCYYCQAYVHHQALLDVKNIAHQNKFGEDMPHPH
The experiment in a line: Inhibition of HDAC6 (unknown origin) using p53 residues 379 to 382 [RHKK(Ac)] as fluorogenic substrate assessed as residual activity at 1.11 x 10^-6M (reference value: 101.06%). The conditions noted are these: dose 1.1 10^-6M.

Experiment [16] relates to HL-60. Description: Induction of apoptosis in human HL-60 cells assessed as nuclear fragmentation at 0.5 to 1 times IC50 by DAPI staining based microscopic analysis. The class given is functional, cell-based.
Experiment [17] deals with Histone deacetylase 5 (Homo sapiens) (UniProt Q9UQL6). Description: Inhibition of HDAC5 (unknown origin) assessed as residual activity at 1.37 x 10^-8M (reference value: 100%). The conditions noted are these: dose 1.37 10^-8M.
A further experiment concerns PC-3. The experiment in a line: cells. It counts as functional, cell-based. To be noted: Homo sapiens.

T1 sequence (Q13547 whole entry, the tested form may be a part): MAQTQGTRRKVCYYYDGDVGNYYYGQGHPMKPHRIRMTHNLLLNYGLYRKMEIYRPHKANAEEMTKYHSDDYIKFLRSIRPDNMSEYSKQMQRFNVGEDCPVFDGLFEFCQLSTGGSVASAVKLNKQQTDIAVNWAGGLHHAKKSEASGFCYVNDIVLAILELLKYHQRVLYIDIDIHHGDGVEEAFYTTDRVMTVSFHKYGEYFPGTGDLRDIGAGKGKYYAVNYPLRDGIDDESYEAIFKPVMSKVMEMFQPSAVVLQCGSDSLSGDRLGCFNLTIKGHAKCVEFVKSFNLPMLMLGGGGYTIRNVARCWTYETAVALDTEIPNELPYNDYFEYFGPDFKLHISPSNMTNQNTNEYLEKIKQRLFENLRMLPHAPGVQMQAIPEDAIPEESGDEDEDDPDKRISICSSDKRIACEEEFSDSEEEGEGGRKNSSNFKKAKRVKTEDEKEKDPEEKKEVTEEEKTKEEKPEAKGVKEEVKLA
Sequence of Histone deacetylase 5 (Homo sapiens) (Q9UQL6 whole entry): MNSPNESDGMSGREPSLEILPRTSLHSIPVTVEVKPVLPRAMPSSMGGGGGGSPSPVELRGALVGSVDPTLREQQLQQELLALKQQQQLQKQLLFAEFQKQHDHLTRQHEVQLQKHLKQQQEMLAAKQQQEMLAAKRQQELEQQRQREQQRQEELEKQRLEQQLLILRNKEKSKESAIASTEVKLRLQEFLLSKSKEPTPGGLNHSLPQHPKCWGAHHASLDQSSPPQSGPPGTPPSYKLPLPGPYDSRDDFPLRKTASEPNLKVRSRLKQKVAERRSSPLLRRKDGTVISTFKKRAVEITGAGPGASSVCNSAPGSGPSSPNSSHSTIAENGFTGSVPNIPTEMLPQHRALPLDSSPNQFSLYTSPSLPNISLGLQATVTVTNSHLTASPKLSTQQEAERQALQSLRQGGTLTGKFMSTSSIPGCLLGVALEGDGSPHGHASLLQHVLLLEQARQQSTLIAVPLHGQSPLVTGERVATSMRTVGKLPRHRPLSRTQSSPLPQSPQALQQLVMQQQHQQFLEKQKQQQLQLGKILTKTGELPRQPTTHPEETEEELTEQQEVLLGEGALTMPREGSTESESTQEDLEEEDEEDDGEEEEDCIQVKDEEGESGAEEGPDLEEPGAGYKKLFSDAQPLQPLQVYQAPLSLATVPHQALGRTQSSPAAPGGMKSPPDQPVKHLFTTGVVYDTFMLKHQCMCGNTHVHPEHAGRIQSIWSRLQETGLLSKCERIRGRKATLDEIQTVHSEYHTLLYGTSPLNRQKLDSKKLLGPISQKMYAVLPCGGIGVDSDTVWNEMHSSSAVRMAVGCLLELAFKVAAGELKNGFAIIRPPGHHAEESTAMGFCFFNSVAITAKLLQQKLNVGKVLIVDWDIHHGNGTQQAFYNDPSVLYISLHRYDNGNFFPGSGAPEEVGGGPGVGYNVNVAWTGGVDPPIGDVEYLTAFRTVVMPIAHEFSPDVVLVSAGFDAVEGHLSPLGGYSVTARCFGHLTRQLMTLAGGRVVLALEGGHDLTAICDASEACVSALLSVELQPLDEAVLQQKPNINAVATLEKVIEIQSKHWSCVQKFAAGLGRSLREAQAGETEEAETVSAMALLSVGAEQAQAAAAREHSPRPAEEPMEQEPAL
T3 sequence (Q92769 whole entry): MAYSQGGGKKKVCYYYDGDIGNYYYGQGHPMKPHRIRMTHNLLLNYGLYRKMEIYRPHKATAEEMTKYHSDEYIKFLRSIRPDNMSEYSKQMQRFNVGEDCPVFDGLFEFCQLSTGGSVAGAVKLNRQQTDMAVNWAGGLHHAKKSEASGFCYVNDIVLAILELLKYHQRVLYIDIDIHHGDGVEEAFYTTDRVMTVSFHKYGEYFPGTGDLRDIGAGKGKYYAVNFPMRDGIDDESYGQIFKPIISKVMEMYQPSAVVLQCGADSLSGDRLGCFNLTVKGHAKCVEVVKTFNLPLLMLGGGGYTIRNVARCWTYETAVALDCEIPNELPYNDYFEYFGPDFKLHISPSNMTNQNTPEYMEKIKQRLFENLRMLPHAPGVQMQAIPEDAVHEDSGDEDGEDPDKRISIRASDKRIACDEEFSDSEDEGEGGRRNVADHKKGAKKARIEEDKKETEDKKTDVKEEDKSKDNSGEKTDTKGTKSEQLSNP
Sequence of Histone deacetylase 9 (Homo sapiens) (Q9UKV0 whole entry): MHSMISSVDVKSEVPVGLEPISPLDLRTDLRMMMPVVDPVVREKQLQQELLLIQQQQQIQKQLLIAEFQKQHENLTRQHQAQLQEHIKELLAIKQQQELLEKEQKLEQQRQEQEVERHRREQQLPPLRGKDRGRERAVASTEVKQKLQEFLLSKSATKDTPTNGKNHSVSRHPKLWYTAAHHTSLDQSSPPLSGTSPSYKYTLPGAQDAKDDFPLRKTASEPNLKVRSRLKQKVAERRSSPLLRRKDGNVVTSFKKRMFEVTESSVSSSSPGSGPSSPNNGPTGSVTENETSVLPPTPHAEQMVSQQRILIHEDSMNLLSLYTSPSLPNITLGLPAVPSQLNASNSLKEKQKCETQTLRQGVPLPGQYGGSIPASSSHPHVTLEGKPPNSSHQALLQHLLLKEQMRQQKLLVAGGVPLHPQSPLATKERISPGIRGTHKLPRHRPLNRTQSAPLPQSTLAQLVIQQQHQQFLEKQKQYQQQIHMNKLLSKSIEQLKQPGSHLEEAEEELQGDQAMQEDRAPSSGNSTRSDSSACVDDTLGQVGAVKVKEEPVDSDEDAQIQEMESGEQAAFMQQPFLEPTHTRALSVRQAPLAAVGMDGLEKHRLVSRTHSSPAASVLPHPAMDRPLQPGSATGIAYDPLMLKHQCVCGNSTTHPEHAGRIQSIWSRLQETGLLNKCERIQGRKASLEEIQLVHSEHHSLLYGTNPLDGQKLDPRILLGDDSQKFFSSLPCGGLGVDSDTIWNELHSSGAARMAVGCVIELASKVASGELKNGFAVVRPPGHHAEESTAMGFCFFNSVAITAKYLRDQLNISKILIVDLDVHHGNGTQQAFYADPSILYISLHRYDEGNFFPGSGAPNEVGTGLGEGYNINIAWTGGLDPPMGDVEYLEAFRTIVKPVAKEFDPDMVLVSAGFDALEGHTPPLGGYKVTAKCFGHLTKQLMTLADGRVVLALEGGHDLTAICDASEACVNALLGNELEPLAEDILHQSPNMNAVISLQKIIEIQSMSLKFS
Description for PC-3: Antiproliferative activity against human PC-3 cells assessed as inhibition of cell growth by MTT assay

As to `NC(=O)c1cccc2[nH]c(-c3ccc(NCc4ccc(C(=O)Nc5ccccc5N)cc4)cc3)nc12`, the result in the experiment on HL-60 [1] was Active. The Activity at Histone deacetylase 1 [2] was 12.3%; on Histone deacetylase 1 [4], 88.7%; in experiment [5] it was 82.9%; in experiment [6], 104%; in [8], 89.6%; in the experiment on HL-60 [9] it was “Dose-Dependent Effect”. The Activity in [10] is 88.5%; with HL-60 [11], “Dose-Dependent Effect”; at Histone deacetylase 1 [12], 95.5%; on Histone deacetylase 2 [13], 7.52%; at Histone deacetylase 2 [14], 89.2%; in experiment [15], 79.8%. For the same compound, the Activity in experiment [17] turned out to be 84%. Besides, the result in the experiment on HL-60 [3] and in the experiment on HL-60 [16] was inactive. Also, the IC50 came to 690 nM in the experiment with HL-60 [7] and 4010 nM in the experiment with PC-3.

In general, IC50 refers to the concentration that inhibits the measured activity by half.

For the origin of these results see ChEMBL document CHEMBL5550160, “Leveraging a rationally designed veliparib-based anilide eliciting anti-leukemic effects for the design of pH-responsive polymer nanoformulation” (Eur J Med Chem, 2024).
